Reference: US20240398781A1, “SPIROCYCLIC CYCLIC MODULATORS OF CHOLESTEROL BIOSYNTHESIS AND THEIR USE FOR PROMOTING REMYELINATION” (GENENTECH, INC., priority 2021, published 2024)
pEC50, pKi: −log10 of the molar value. Where two headings read alike, the source gives them in different places.

What was measured:
human EBP = human EBP (Homo sapiens (Human), UniProt Q15125); assay: Competition binding assay (SPA, [3H]-Ifenprodil) to determine compound affinity to EBP; conditions: read-out: hEBP SPA Ki
Procedure: Membrane preparation: To examine compound binding affinity to EBP, human EBP was overexpressed in human embryonic kidney 293 cells. Cell pellet was lysed in 10 times weight binding buffer (50 mM Tris, 5 mM MgCl2, 0.1 mM EDTA, lx protease inhibitor cocktail, pH 7.5) on ice by using a dounce homogenizer. The solution was centrifuged at 25,000 g for 50 min at 4° C. The membrane pellet was re-suspended in binding buffer and run through a 25 5/8 gauge needle. After checking the concentration by Bradford assay, the whole cell membrane solution was adjusted to 20 mg/mL and stored at −80° C.
This binding solution was centrifuged at 400 g for 5 minutes to collect the bead/membrane mixture. After re-suspending the pellet in binding buffer at the same calculated volume with 0.01% BSA (Sigma A1933), the bead/membrane mixture was added in 384-well low-binding surface plate (PerkinElmer Cat #6057480) at 25 μl/well. Radioligand at different concentrations with and without the non-radio-labeled same ligand 5 uM (for nonspecific and total signal, respectively) was added to bring final volume to 50 µl/well with DMSO concentration at 0.1%. At equilibrium (3 hours after ligand addition), radiometric signal CPM was counted by using a Microbeta2 microplate counter (Perkinelmer).
Competition binding assay to determine compound affinity: The same conditions of the radioligand Kd study were used for compound single dose percentage inhibition and equilibrium dissociation constant Ki examinations, except 50 nL compound DMSO stock was pre-added in 384-well low-binding surface plate (PerkinElmer Cat #6057480) by Echo 550 (Labcyte) to reach the final concentration for single dose test at 1 uM, and dose response test from 0.06 nM to 5 uM (8 dose, 5 times dilution). A pre-incubated bead/membrane mixture was added in compound plate at 0.3 mg beads and […] membrane per well. […] At equilibrium (3 hours after ligand addition), radiometric signal was counted as described above. The percentage inhibition of compound at each testing concentration was calculated by normalizing each condition's CPM readout to full block (5 uM non-radiolabeled ligand) and non-block (DMSO) control conditions. Compound binding inhibition IC50 was determined by nonlinear regression fitting of percentage inhibition plot against compound concentration. Compound Ki was calculated from the equation Ki=IC50/(1+[L]/Kd), which [L] was radioligand concentration used in assay. All tests had N bigger or equal to 2.

EpiSC-derived OPCs = assay: In vitro phenotypic screening of OPCs (MBP staining, high-content imaging); type: cell-based, mouse; conditions: Mus musculus, 72 h, percentage of MBP+ oligodendrocytes, 3 days, 0.5 nM to 1000 nM; read-out: OPC EC50
Outline: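 EpiSC-derived mouse OPCs seeded at 150,000/cm^2 on laminin in N2B27 without growth factors, treated 3 days at 37° C. with compound (8 points, 1000 nM to 0.5 nM). Fixed cells stained for MBP and DAPI and imaged; percentage of MBP+ oligodendrocytes fitted by Hill equation for EC50.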

[1] = [3H]-Ifenprodil 10 nM, HEK293 membrane overexpressing human EBP, Ki=IC50/(1+[L]/Kd)

Sequence of human EBP (Q15125 whole entry): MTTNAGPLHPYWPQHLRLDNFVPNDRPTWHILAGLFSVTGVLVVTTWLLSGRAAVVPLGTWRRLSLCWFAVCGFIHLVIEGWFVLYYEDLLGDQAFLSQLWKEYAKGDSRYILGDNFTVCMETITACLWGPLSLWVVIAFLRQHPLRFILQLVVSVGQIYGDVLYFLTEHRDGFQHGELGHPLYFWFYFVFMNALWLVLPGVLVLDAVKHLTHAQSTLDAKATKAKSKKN

Row | pKi (human EBP; [1]) | pEC50 (EpiSC-derived OPCs) | pKi (human EBP) | SMILES
1 | 7.47 | 7.07 | – | O=S1(=O)CC2(CCN([C@H]3CCN(c4ccc(C(F)(F)F)nc4)C3)C2)C1 (single isomer, unassigned) [9A*]
2 | 6.77 | < 6.00 | – | O=S1(=O)CC2(CCN([C@@H]3CCN(c4ccc(C(F)(F)F)nc4)C3)C2)C1 (single isomer, unassigned) [9B*]
3 | 7.47 | 7.74 | – | CC(C)n1nc(C(F)(F)F)cc1[C@H]1CC[C@H](N2CCC3(C2)CS(=O)(=O)C3)C1 (single isomer, unassigned) [10A*]
4 | 7.72 | 7.70 | – | CC(C)n1nc(C(F)(F)F)cc1[C@H]1CC[C@@H](N2CCC3(C2)CS(=O)(=O)C3)C1 (single isomer, unassigned) [10B*]
5 | 7.54 | 7.96 | – | CC(C)n1nc(C(F)(F)F)cc1[C@@H]1CC[C@H](N2CCC3(C2)CS(=O)(=O)C3)C1 (single isomer, unassigned) [10C*]
6 | 7.46 | 7.62 | – | O=S1(=O)CC2(CCN([C@@H]3CC[C@H](c4ccc(C(F)(F)F)nc4)C3)C2)C1 (single isomer, unassigned) [11C*]
7 | – | 6.55 | 7.40 | O=S1(=O)CC2(CCN(C3CC[C@H](c4ccc(C(F)(F)F)nc4)C3)C2)C1 (single isomer, unassigned) [11D*]
8 | 7.82 | 8.89 | – | CC(C)n1nc(-c2cncc(C(F)(F)F)c2)cc1[C@H]1CC[C@@H](N2CCC3(C2)CS(=O)(=O)C3)C1 (single isomer, unassigned) [13A*]
9 | 7.60 | 8.89 | – | CC(C)n1nc(-c2cncc(C(F)(F)F)c2)cc1[C@@H]1CC[C@H](N2CCC3(C2)CS(=O)(=O)C3)C1 (single isomer, unassigned) [13B*]
10 | 7.68 | 7.68 | – | CC(C)n1nc(-c2cncc(C(F)(F)F)c2)cc1[C@@H]1CC[C@@H](N2CCC3(C2)CS(=O)(=O)C3)C1 (single isomer, unassigned) [13C*]
11 | 7.15 | 8.66 | – | CC(C)n1nc(-c2cncc(C(F)(F)F)c2)cc1[C@H]1CC[C@H](N2CCC3(C2)CS(=O)(=O)C3)C1 (single isomer, unassigned) [13D*]
12 | 6.55 | < 6.00 | – | CC(C)n1cc(C(F)(F)F)nc1[C@H]1CC[C@H](N2CCC3(C2)CS(=O)(=O)C3)C1 (single isomer, unassigned) [20A*]

Row | SMILES | pKi (human EBP; [1]) | pEC50 (EpiSC-derived OPCs) | pKi (human EBP)
13 | CC(C)n1nc(-c2ccc(C(F)(F)F)nc2)nc1[C@H]1CC[C@H](N2CCC3(C2)CS(=O)(=O)C3)C1 (single isomer, unassigned) [17B*] | 7.51 | 7.66 | –
14 | CC(C)n1nc(-c2ccc(C(F)(F)F)nc2)nc1[C@H]1CC[C@@H](N2CCC3(C2)CS(=O)(=O)C3)C1 (single isomer, unassigned) [17D*] | 7.70 | 7.85 | –
15 | CC(C)n1nc(C2CC2)nc1[C@@H]1CC[C@H](N2CCC3(C2)CS(=O)(=O)C3)C1 (single isomer, unassigned) [18A*] | 6.51 | 6.41 | –
16 | CC(C)n1nc(C2CC2)nc1[C@H]1CC[C@H](N2CCC3(C2)CS(=O)(=O)C3)C1 (single isomer, unassigned) [18B*, 6-(3-(3-cyclopropyl-1-isopropyl-1H-1,2,4-triazol-5-yl)cyclopentyl)-2-thia-6-azaspiro[3.4]octane 2,2-dioxide] | 6.68 | 6.41 | –
17 | CC(C)n1nc(C2CC2)nc1[C@@H]1CC[C@@H](N2CCC3(C2)CS(=O)(=O)C3)C1 (single isomer, unassigned) [18C*] | 7.09 | 6.62 | –
18 | CC(C)n1nc(C2CC2)nc1[C@H]1CC[C@@H](N2CCC3(C2)CS(=O)(=O)C3)C1 (single isomer, unassigned) [18D*, 6-(3-(3-cyclopropyl-1-isopropyl-1H-1,2,4-triazol-5-yl)cyclopentyl)-2-thia-6-azaspiro[3.4]octane 2,2-dioxide] | 6.57 | 6.37 | –
19 | CC(C)n1cc(C(F)(F)F)nc1[C@@H]1CC[C@@H](N2CCC3(C2)CS(=O)(=O)C3)C1 (single isomer, unassigned) [20B*] | 7.26 | 6.47 | –
